In patent US9067941B2, “Fused heterocyclic azaindane carboxamide CGRP receptor antagonists” (Merck Sharp & Dohme Corp., priority 2010, dated 2015) one finds Ki data, which are given here for seven compounds.

pKi: −log10 of the molar value.

The experiment deals with T1, recombinant human CL receptor/RAMP1 (Homo sapiens, UniProt O60894+Q16602).
T1 construct: expressed in transfected cells; membranes
T1 sequence (Q16602 23-461): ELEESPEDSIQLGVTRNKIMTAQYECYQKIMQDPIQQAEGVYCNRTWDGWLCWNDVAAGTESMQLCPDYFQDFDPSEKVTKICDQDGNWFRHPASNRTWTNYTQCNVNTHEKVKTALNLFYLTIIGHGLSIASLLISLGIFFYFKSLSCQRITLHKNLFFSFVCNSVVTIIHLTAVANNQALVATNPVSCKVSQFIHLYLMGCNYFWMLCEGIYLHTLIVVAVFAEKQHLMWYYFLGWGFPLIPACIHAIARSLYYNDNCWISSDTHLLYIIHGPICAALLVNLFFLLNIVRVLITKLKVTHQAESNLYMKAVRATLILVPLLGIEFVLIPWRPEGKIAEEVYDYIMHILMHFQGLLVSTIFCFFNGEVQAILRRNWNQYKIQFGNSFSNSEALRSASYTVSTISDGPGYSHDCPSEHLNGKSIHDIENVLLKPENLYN
T1 sequence (O60894 27-148): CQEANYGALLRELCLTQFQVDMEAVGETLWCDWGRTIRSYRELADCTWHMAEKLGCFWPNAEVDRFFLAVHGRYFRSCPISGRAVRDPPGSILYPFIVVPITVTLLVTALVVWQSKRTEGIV
Nature of the experiment: Recombinant receptor binding assay (125I-hCGRP displacement, membranes of HEK 293 cells). As to conditions: 10 pM 125I-hCGRP, 3 h at room temperature. As to the method:
RECOMBINANT RECEPTOR: Human CL receptor (Genbank accession number L76380) was subcloned into the expression vector pIREShyg2 (BD Biosciences Clontech) as a 5′NheI and 3′ PmeI fragment. Human RAMP1 (Genbank accession number A3001014) was subcloned into the expression vector pIRESpuro2 (BD Biosciences Clontech) as a 5′NheI and 3′NotI fragment. HEK 293 cells (human embryonic kidney cells; ATCC #CRL-1573) were cultured in DMEM with 4.5 g/L glucose, 1 mM sodium pyruvate and 2 mM glutamine supplemented with 10% fetal bovine serum (FBS), 100 units/mL penicillin and 100 μg/mL streptomycin, and maintained at 37° C. and 95% humidity. Cells were subcultured by treatment with 0.25% trypsin with 0.1% EDTA in HBSS. Stable cell line generation was accomplished by co-transfecting 10 μg of DNA with 30 μg Lipofectamine 2000 (Invitrogen) in 75 cm^2 flasks. CL receptor and RAMP1 expression constructs were co-transfected in equal amounts. Twenty-four hours after transfection the cells were diluted and selective medium (growth medium+300 μg/mL hygromycin and 1 μg/mL puromycin) was added the following day. A clonal cell line was generated by single cell deposition utilizing a FACS Vantage SE (Becton Dickinson). Growth medium was adjusted to 150 μg/mL hygromycin and 0.5 μg/mL puromycin for cell propagation.
RECOMBINANT RECEPTOR BINDING ASSAY: Cells expressing recombinant human CL receptor/RAMP1 were washed with PBS and harvested in harvest buffer containing 50 mM HEPES, 1 mM EDTA and Complete™ protease inhibitors (Roche). The cell suspension was disrupted with a laboratory homogenizer and centrifuged at 48,000 g to isolate membranes. The pellets were resuspended in harvest buffer plus 250 mM sucrose and stored at −70° C. For binding assays, 20 μg of membranes were incubated in 1 mL binding buffer (10 mM HEPES, pH 7.4, 5 mM MgCl2, and 0.2% BSA) for 3 h at room temperature containing 10 pM ^125I-hCGRP (GE Healthcare) and antagonist. The assay was terminated by filtration through 96-well GFB glass fiber filter plates (PerkinElmer) that had been blocked with 0.05% polyethyleneimine. The filters were washed 3 times with ice-cold assay buffer (10 mM HEPES, pH 7.4, and 5 mM MgCl2). Scintillation fluid was added and the plates were counted on a Topcount (Packard). Non-specific binding was determined and the data analysis was carried out with the apparent dissociation constant (Ki) determined by using a non-linear least squares fitting the bound CPM data to the equation below:
[formula] Where Y is observed CPM bound, Ymax is total bound counts, Ymin is non specific bound counts, (Ymax−Ymin) is specific bound counts, % Imax is the maximum percent inhibition, % I min is the minimum percent inhibition, radiolabel is the probe, and the Kd is the apparent dissociation constant for the radioligand for the receptor as determined by hot saturation experiments.
On to `O=C(N[C@H]1C[C@@H](c2cccc(F)c2F)Cn2c(CC(F)(F)F)cnc21)c1cnc2c(c1)C[C@@]1(C2)C(=O)Nc2ncccc21` [Example 1.2, (6S)—N-[(6S,8S)-6-(2,3-Difluorophenyl)-3-(2,2,2-trifluoroethyl)-5,6,7,8-tetrahydroimidazo[1,2-a]pyridin-8-yl]-2′-oxo-1′,2′,5,7-tetrahydrospiro[cyclopenta[b]pyridine-6,3′-pyrrolo[2,3-b]pyridine]-3-carboxamide], for which the pKi was 10.30.
As to `COC(C)(C)c1cnc2n1C[C@H](c1cccc(F)c1F)C[C@@H]2NC(=O)c1cnc2c(c1)C[C@@]1(C2)C(=O)Nc2ncccc21` [Example 1.11, (6S)—N-[(6S,8S)-6-(2,3-Difluorophenyl)-3-(2-methoxypropan-2-yl)-5,6,7,8-tetrahydroimidazo[1,2-a]pyridin-8-yl]-2′-oxo-1′,2′,5,7-tetrahydrospiro[cyclopenta[b]pyridine-6,3′-pyrrolo[2,3-b]pyridine]-3-carboxamide], the pKi is 10.70.
Then `O=C(N[C@H]1C[C@@H](c2cccc(F)c2F)Cn2c(CC(F)(F)F)nnc21)c1cnc2c(c1)C[C@@]1(C2)C(=O)Nc2ncccc21` [Example 1.24, (6S)—N-[(6S,8S)-6-(2,3-Difluorophenyl)-3-(2,2,2-trifluoroethyl)-5,6,7,8-tetrahydro[1,2,4]triazolo[4,3-a]pyridin-8-yl]-2′-oxo-1′,2′,5,7-tetrahydrospiro[cyclopenta[b]pyridine-6,3′-pyrrolo[2,3-b]pyridine]-3-carboxamide], with 9.72; and `C[C@@H]1[C@H](c2ccccc2)C[C@H](NC(=O)c2cnc3c(c2)C[C@@]2(C3)C(=O)Nc3ncccc32)c2ncc(CC(F)(F)F)n21` [Example 1.25], with 10.22.
On to `C[C@@H]1[C@H](c2ccccc2)C[C@H](NC(=O)c2cnc3c(c2)C[C@@]2(C3)C(=O)Nc3ncccc32)c2ncc(C(C)(C)O)n21` [Example 1.26, (6S)—N-[(5R,6S,8S)-3-(2-Hydroxypropan-2-yl)-5-methyl-6-phenyl-5,6,7,8-tetrahydroimidazo[1,2-a]pyridin-8-yl]-2′-oxo-1′,2′,5,7-tetrahydrospiro[cyclopenta[b]pyridine-6,3′-pyrrolo[2,3-b]pyridine]-3-carboxamide], for which the pKi was 9.85.
For `C[C@@H]1[C@H](c2ccccc2)C[C@H](NC(=O)c2cnc3c(c2)C[C@@]2(C3)C(=O)Nc3ncccc32)c2nnc(C3(C(F)(F)F)CC3)n21` [Example 1.27, (6S)—N-{(5R,6S,8S)-5-Methyl-6-phenyl-3-[1-(trifluoromethyl)cyclopropyl]-5,6,7,8-tetrahydro[1,2,4]triazolo[4,3-a]pyridin-8-yl}-2′-oxo-1′,2′,5,7-tetrahydrospiro[cyclopenta[b]pyridine-6,3′-pyrrolo[2,3-b]pyridine]-3-carboxamide] the value was 9.44.
Then `C[C@@H]1[C@H](c2ccccc2)C[C@H](NC(=O)c2cnc3c(c2)C[C@@]2(C3)C(=O)Nc3ncncc32)c2ncc(C(C)(C)O)n21` [Example 2.1, (6S)—N-[(5R,6S,8S)-3-(2-Hydroxypropan-2-yl)-5-methyl-6-phenyl-5,6,7,8-tetrahydroimidazo[1,2-a]pyridin-8-yl]-6′-oxo-5,6′,7,7′-tetrahydrospiro[cyclopenta[b]pyridine-6,5′-pyrrolo[2,3-d]pyrimidine]-3-carboxamide], with 9.25.
